Assay results published in patent publication US9382197B2, “Substituted hydroxamic acids and uses thereof” (Millennium Pharmaceuticals, Inc., priority 2010, dated 2016).

molecular target: T1, purified human HDAC6 (Homo sapiens, UniProt Q9UBN7); test: HDAC6 Enzyme Assay; format: biochemical; details: bin: greater than 500 nM and less than 1 μM (lower bound in nM, upper bound in μM)
T1 construct: purchased BPS Bioscience 5006
T1 sequence (Q9UBN7 1-1215): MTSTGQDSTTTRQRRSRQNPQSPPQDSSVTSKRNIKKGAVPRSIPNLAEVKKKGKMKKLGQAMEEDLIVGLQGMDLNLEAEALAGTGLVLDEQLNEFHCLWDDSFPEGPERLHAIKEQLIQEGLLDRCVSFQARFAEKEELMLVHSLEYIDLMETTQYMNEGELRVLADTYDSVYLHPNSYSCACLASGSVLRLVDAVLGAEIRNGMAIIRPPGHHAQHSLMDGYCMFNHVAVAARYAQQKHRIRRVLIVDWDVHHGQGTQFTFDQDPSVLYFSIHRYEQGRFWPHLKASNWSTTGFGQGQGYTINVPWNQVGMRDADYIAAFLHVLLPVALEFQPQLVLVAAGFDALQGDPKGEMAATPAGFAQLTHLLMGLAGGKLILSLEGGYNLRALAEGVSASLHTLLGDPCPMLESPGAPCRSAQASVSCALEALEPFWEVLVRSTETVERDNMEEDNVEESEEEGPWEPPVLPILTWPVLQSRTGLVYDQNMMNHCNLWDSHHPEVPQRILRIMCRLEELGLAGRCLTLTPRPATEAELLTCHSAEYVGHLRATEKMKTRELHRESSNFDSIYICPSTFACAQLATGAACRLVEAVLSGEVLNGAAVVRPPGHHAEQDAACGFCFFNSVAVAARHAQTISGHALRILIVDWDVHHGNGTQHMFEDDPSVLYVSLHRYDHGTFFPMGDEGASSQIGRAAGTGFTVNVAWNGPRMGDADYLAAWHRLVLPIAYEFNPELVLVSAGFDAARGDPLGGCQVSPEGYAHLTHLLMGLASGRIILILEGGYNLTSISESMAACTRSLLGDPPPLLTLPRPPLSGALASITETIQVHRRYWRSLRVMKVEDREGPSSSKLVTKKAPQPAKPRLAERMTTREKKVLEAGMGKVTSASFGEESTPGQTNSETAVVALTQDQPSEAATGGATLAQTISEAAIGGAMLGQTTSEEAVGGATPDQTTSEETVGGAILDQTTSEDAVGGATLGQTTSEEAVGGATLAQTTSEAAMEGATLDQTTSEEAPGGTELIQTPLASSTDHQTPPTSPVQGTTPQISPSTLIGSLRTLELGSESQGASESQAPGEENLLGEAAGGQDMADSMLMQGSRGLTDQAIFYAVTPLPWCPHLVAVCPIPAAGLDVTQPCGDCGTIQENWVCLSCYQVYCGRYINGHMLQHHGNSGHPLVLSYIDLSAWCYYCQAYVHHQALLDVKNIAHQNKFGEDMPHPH
Procedure, shortened: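 Purified human HDAC6 incubated 1 h at 30 °C with Ac-Arg-Gly-Lys(Ac)-AMC and compound; trichostatin A stop, trypsin release of AMC, fluorescence Ex 340/Em 460 nm. IC50 from concentration–response relative to DMSO.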

IC50, 500 to 1000 nM:
CC(NC(=O)c1ccc(C(F)(F)F)cc1)c1cccc(C(=O)NO)c1 (stereo not shown) [Compound I-151, N-hydroxy-3-(1-{[4-(trifluoromethyl)benzoyl]amino}ethyl)benzamide]
CC(NC(=O)c1cscn1)c1cccc(C(=O)NO)c1 (stereo not shown) [Compound I-179, N-(1-{3-[(hydroxyamino)carbonyl]phenyl}ethyl)-1,3-thiazole-4-carboxamide]
Cc1cc(C(=O)NC(C)c2cccc(C(=O)NO)c2)c(C)[nH]1 (stereo not shown) [Compound I-181, N-(1-{3-[(hydroxyamino)carbonyl]phenyl}ethyl)-2,5-dimethyl-1H-pyrrole-3-carboxamide]

same assay, conditions: bin: greater than 1 μM

IC50, > 1000 nM:
CC(NC(=O)CC(C)(C)C)c1ccc(C(=O)NO)cc1 (stereo not shown) [Compound I-144, 4-{1-[(3,3-dimethylbutanoyl)amino]ethyl}-N-hydroxybenzamide]
CC(NC(=O)C1CCCCC1)c1cccc(C(=O)NO)c1 (stereo not shown) [Compound I-149, 3-{1-[(cyclohexylcarbonyl)amino]ethyl}-N-hydroxybenzamide]
CC(C)C(NC(=O)c1cc(C(F)(F)F)ccc1C(F)(F)F)c1ccc(C(=O)NO)cc1 (stereo not shown) [Compound I-155, N-(1-{4-[(hydroxyamino)carbonyl]phenyl}-2-methylpropyl)-2,5-bis(trifluoromethyl)benzamide]
CC(C)[C@H](NC(=O)C12CC3CC(CC(C3)C1)C2)c1ccc(C(=O)NO)cc1 [Compound I-157, N-((1S)-1-{4-[(hydroxyamino)carbonyl]phenyl}-2-methylpropyl)adamantane-1-carboxamide]
COc1ccc(CC(=O)NC(C)c2ccc(C(=O)NO)cc2)cc1 (stereo not shown) [Compound I-159, N-hydroxy-4-(1-{[(4-methoxyphenyl)acetyl]amino}ethyl)benzamide]
CC(C)(C)C(NC(=O)C12CC3CC(CC(C3)C1)C2)c1ccc(C(=O)NO)cc1 (stereo not shown) [Compound I-162, N-(1-{4-[(hydroxyamino)carbonyl]phenyl}-2,2-dimethylpropyl)adamantane-1-carboxamide]
CC(NC(=O)c1cnccn1)c1cccc(C(=O)NO)c1 (stereo not shown) [Compound I-165, N-(1-{3-[(hydroxyamino)carbonyl]phenyl}ethyl)pyrazine-2-carboxamide]
Cc1nn(C)cc1C(=O)NC(C)c1cccc(C(=O)NO)c1 (stereo not shown) [Compound I-167, N-(1-{3-[(hydroxyamino)carbonyl]phenyl}ethyl)-1,3-dimethyl-1H-pyrazole-4-carboxamide]
Cc1c(C(=O)N[C@H](C)c2cccc(C(=O)NO)c2)oc2ccccc12 [Compound I-169, N-((1R)-1-{3-[(hydroxyamino)carbonyl]phenyl}ethyl)-3-methyl-1-benzofuran-2-carboxamide]
CCC[C@@H](NS(=O)(=O)c1ccc(C(F)(F)F)cc1)c1ccc(C(=O)NO)cc1 [Compound I-171, N-hydroxy-4-[(1R)-1-({[4-(trifluoromethyl)phenyl]sulfonyl}amino)butyl]benzamide]
C[C@@H](NC(=O)C(C)(C)C)c1cccc(C(=O)NO)c1 [Compound I-177, 3-{(1R)-1-[(2,2-dimethylpropanoyl)amino]ethyl}-N-hydroxybenzamide]
CC(NC(=O)c1cc2oc(-c3ccccc3)cc2n1C)c1cccc(C(=O)NO)c1 (stereo not shown) [Compound I-180, N-(1-{3-[(hydroxyamino)carbonyl]phenyl}ethyl)-4-methyl-2-phenyl-4H-furo[3,2-b]pyrrole-5-carboxamide]

same assay, conditions: purified human HDAC6, substrate Ac-Arg-Gly-Lys(Ac)-AMC, 1 hour at 30° C.; reported as bins

IC50, < 100 nM:
CC(C)C(NC(=O)c1ccc(-c2ccc(F)cc2)cc1)c1ccc(C(=O)NO)cc1 (stereo not shown) [Compound I-143, 4′-fluoro-N-(1-{4-[(hydroxyamino)carbonyl]phenyl}-2-methylpropyl)biphenyl-4-carboxamide]
Cn1ccc2cc(C(=O)NC(c3ccc(C(=O)NO)cc3)C(C)(C)C)ccc21 (stereo not shown) [Compound I-145, N-(1-{4-[(hydroxyamino)carbonyl]phenyl}-2,2-dimethylpropyl)-1-methyl-1H-indole-5-carboxamide]
CCC[C@@H](NC(=O)c1ccc(OC)cc1)c1ccc(C(=O)NO)cc1 [Compound I-146, N-((1R)-1-{4-[(hydroxyamino)carbonyl]phenyl}butyl)-4-methoxybenzamide]
Cc1ccc(C(=O)NC(C)c2ccc(C(=O)NO)cc2)s1 (stereo not shown) [Compound I-147, N-(1-{4-[(hydroxyamino)carbonyl]phenyl}ethyl)-5-methylthiophene-2-carboxamide]
CC(NC(=O)Nc1ccc2c(c1)CCO2)c1ccc(C(=O)NO)cc1 (stereo not shown) [Compound I-148, 4-(1-{[(2,3-dihydro-1-benzofuran-5-ylamino)carbonyl]amino}ethyl)-N-hydroxybenzamide]
CC(NC(=O)Nc1ccc(OC(F)F)cc1)c1ccc(C(=O)NO)cc1 (stereo not shown) [Compound I-150, 4-{1-[({[4-(difluoromethoxy)phenyl]amino}carbonyl)amino]ethyl}-N-hydroxybenzamide]
CC(NC(=O)C1(C)CC1)c1ccc(C(=O)NO)cc1 (stereo not shown) [Compound I-154, N-hydroxy-4-(1-{[(1-methylcyclopropyl)carbonyl]amino}ethyl)benzamide]
Cc1cc(C)n2nc(C(=O)NC(C)c3ccc(C(=O)NO)cc3)cc2n1 (stereo not shown) [Compound I-160, N-(1-{4-[(hydroxyamino)carbonyl]phenyl}ethyl)-5,7-dimethylpyrazolo[1,5-a]pyrimidine-2-carboxamide]
CC(NC(=O)Nc1ccc(C(F)(F)F)cc1Cl)c1ccc(C(=O)NO)cc1 (stereo not shown) [Compound I-163, 4-{1-[({[2-chloro-4-(trifluoromethyl)phenyl]amino}carbonyl)amino]ethyl}-N-hydroxybenzamide]
COc1cc(C(=O)NC(C)c2ccc(C(=O)NO)cc2)ccc1F (stereo not shown) [Compound I-164, 4-fluoro-N-(1-{4-[(hydroxyamino)carbonyl]phenyl}ethyl)-3-methoxybenzamide]
CC(C)C(NC(=O)c1csc(-c2ccccc2)n1)c1ccc(C(=O)NO)cc1 (stereo not shown) [Compound I-172, N-(1-{4-[(hydroxyamino)carbonyl]phenyl}-2-methylpropyl)-2-phenyl-1,3-thiazole-4-carboxamide]
Cc1cccc(NC(=O)NC(C)c2ccc(C(=O)NO)cc2)c1C (stereo not shown) [Compound I-175, 4-[1-({[(2,3-dimethylphenyl)amino]carbonyl}amino)ethyl]-N-hydroxybenzamide]

IC50, 100 to 500 nM:
CC(NC(=O)c1ccc(-c2ccccc2)cc1)c1cccc(C(=O)NO)c1 (stereo not shown) [Compound I-142, N-(1-{3-[(hydroxyamino)carbonyl]phenyl}ethyl)biphenyl-4-carboxamide]
Cc1cccc(C)c1NC(=O)NC(C)c1ccc(C(=O)NO)cc1 (stereo not shown) [Compound I-156, 4-[1-({[(2,6-dimethylphenyl)amino]carbonyl}amino)ethyl]-N-hydroxybenzamide]
CC(C)(C)C(NC(=O)c1csc2ccccc12)c1ccc(C(=O)NO)cc1 (stereo not shown) [Compound I-158, N-(1-{4-[(hydroxyamino)carbonyl]phenyl}-2,2-dimethylpropyl)-1-benzothiophene-3-carboxamide]
CC(C)C(NC(=O)c1cc(C(F)(F)F)cc(C(F)(F)F)c1)c1ccc(C(=O)NO)cc1 (stereo not shown) [Compound I-173, N-(1-{4-[(hydroxyamino)carbonyl]phenyl}-2-methylpropyl)-3,5-bis(trifluoromethyl)benzamide]
Cc1[nH]c2ccccc2c1CC(=O)NC(c1ccc(C(=O)NO)cc1)C(C)C (stereo not shown) [Compound I-174, N-hydroxy-4-(2-methyl-1-{[(2-methyl-1H-indol-3-yl)acetyl]amino}propyl)benzamide]
Cc1cc(C)c(S(=O)(=O)NC(C)c2ccc(C(=O)NO)cc2)c(C)c1 (stereo not shown) [Compound I-176, N-hydroxy-4-{1-[(mesitylsulfonyl)amino]ethyl}benzamide]
CC(NS(=O)(=O)c1ccc(-c2cnco2)cc1)c1ccc(C(=O)NO)cc1 (stereo not shown) [Compound I-178, N-hydroxy-4-[1-({[4-(1,3-oxazol-5-yl)phenyl]sulfonyl}amino)ethyl]benzamide]
